Data taken from ChEMBL document CHEMBL1201862, “PubChem BioAssay data set” (2004).
Blank lines part the entries; values can stand above or below the compound they belong to. Active and inactive are the calls of the source.

What was measured:
Escherichia coli = experiment: microbe, parasite or virus in culture
[1] = biological target: Heat shock protein HSP 90-alpha (Homo sapiens, UniProt P07900); assay type: functional, organism-based
[2] = biological target: T1, Voltage-gated N-type calcium channel alpha-1B subunit/Amyloid beta A4 precursor protein-binding family A member 1 (Homo sapiens, UniProt Q00975+Q02410); assay type: protein assay
T1 sequence (Q00975 whole entry): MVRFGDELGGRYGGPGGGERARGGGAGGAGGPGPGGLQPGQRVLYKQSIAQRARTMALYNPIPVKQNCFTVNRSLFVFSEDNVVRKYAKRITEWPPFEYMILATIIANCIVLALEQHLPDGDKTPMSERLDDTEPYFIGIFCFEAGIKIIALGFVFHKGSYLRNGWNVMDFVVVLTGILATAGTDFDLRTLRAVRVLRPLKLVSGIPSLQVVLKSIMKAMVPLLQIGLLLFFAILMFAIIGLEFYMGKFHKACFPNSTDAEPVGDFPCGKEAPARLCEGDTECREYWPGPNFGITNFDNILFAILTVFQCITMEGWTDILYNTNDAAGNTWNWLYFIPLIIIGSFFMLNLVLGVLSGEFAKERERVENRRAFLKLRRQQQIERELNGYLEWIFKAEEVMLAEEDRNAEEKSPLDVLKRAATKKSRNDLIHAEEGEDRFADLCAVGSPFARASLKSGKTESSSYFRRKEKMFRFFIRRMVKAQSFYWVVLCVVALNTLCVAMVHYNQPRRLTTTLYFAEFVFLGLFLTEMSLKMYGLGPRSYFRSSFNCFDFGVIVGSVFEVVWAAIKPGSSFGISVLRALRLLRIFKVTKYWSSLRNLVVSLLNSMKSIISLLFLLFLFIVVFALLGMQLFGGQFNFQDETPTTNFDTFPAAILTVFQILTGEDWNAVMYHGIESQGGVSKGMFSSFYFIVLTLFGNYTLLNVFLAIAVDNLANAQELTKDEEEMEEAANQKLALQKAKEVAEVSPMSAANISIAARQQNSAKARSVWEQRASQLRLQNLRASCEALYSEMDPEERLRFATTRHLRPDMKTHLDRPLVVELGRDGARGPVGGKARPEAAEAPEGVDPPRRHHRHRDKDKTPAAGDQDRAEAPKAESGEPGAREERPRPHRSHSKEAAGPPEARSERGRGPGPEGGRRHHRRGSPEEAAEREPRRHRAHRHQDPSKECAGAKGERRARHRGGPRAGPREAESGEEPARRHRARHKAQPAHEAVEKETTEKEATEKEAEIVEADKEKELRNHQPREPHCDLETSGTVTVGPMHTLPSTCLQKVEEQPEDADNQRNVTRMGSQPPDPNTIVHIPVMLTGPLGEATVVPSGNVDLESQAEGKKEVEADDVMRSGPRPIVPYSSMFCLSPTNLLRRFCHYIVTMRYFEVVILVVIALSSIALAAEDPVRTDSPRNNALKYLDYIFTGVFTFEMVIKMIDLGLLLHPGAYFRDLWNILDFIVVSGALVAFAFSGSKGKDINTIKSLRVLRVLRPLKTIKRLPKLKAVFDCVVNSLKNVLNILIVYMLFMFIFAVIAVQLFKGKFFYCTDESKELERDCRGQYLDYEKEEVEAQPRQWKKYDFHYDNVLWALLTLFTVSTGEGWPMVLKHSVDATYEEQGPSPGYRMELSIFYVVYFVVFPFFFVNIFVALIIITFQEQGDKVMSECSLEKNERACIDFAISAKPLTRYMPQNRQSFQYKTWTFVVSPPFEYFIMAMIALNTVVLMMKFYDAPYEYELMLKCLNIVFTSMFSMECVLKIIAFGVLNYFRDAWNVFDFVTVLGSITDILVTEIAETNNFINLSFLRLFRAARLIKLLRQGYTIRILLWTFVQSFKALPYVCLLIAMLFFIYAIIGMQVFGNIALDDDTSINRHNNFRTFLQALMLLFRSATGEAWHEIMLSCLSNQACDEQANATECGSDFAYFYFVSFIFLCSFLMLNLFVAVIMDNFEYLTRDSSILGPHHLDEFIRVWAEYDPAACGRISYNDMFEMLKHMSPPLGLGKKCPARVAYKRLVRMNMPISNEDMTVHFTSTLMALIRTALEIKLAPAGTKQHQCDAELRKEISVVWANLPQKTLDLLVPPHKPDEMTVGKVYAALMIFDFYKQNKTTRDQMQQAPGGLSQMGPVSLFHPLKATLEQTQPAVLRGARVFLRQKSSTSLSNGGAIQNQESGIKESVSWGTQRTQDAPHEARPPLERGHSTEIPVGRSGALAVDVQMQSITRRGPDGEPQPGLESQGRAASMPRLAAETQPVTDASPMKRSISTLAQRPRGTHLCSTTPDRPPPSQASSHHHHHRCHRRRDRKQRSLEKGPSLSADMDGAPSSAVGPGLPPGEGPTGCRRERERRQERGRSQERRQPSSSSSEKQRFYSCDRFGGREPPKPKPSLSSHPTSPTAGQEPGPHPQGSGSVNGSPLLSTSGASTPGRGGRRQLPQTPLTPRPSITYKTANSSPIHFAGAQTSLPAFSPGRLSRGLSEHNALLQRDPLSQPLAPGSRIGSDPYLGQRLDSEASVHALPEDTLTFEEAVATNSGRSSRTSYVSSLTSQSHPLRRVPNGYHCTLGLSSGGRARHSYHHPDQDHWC
T1 sequence (Q02410 whole entry): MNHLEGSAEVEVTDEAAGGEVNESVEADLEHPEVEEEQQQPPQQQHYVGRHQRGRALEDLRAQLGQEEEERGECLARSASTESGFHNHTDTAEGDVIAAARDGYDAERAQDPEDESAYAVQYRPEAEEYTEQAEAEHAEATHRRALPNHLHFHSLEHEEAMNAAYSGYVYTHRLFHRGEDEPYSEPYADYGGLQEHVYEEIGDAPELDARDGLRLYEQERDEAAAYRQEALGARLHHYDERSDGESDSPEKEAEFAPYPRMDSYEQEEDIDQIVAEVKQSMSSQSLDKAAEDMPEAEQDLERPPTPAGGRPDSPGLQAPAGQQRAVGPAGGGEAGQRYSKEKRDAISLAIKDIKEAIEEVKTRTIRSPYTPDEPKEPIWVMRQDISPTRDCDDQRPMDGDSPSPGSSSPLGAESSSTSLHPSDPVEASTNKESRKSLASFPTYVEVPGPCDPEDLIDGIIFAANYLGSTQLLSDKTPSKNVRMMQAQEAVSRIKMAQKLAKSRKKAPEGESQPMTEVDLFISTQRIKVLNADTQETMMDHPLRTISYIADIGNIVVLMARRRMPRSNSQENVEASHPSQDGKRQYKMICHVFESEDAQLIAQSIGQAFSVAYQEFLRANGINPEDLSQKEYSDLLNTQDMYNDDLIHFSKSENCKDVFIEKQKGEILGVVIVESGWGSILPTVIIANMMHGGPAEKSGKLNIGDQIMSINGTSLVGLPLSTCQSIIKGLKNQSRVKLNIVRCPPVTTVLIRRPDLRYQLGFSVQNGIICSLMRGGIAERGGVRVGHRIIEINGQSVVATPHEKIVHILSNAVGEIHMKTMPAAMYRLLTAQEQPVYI

Phosphomannomutase 2 = biological target: T2, Phosphomannomutase 2 (Homo sapiens, UniProt O15305); experiment: Counter screen SAR assay for PMM2 inhibitors via a fluorescence intensity assay. [Related pubchem assays (depositor defined):AID1545, AID1574]
T2 sequence (O15305 whole entry): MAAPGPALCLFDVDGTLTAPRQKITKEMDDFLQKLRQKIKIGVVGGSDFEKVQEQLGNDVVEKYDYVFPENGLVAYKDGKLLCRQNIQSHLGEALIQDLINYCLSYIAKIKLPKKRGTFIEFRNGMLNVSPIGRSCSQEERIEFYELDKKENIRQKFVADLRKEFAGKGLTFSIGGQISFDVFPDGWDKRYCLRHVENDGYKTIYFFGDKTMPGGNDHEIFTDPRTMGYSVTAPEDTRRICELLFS

[3] = biological target: T3, Mannose-6-phosphate isomerase (Homo sapiens, UniProt P34949); experiment: PMI enzyme inhibitors, confirmation, biochemical, fluorescence intensity (AID 1535)
T3 sequence (P34949 whole entry): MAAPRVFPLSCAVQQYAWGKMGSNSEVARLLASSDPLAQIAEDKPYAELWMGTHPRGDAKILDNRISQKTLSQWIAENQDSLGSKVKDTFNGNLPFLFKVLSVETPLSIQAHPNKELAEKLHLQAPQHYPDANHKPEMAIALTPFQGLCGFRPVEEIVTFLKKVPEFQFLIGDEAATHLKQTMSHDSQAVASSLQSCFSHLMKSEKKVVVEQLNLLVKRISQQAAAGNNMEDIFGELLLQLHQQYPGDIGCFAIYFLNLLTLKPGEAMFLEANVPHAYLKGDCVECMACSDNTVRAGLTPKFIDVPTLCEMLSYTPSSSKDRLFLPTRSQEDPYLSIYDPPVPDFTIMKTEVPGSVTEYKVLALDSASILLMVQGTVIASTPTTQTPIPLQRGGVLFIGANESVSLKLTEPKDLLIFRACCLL

[4] = biological target: T4, Rac GTPase-activating protein 1 (Homo sapiens, UniProt Q9H0H5); experiment: MgcRacGAP GTPase-activating activity inhibitors, confirmation, biochemical, ADP Hunter fluorescence, primary and confirmatory (AID 624330); assay type: functional
T4 sequence (Q9H0H5 whole entry): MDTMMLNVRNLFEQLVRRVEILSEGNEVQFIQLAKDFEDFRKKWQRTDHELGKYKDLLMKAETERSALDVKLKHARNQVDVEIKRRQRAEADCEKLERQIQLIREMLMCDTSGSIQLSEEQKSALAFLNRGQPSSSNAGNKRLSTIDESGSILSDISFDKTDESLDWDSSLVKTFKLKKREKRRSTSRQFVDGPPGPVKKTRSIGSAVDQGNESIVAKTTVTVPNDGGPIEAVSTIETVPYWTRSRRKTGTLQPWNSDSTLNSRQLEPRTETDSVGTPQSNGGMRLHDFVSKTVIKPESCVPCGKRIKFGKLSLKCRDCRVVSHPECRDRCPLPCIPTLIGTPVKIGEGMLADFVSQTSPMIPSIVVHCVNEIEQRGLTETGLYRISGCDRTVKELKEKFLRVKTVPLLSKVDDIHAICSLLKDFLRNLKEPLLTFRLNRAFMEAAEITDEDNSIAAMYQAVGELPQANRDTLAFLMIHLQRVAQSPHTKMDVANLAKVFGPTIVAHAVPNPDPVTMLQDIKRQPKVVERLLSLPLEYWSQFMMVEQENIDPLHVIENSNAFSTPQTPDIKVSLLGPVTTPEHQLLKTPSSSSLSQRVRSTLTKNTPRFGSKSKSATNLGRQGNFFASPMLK

[5] = biological target: T3, Mannose-6-phosphate isomerase; experiment: human PMI inhibitors, high substrate, primary screen, biochemical, fluorescence intensity, high mannose 6-phosphate (AID 1220)
[6] = biological target: Eukaryotic translation initiation factor 4E (Mus musculus, UniProt P63073); experiment: eIF4E–eIF4G protein interaction inhibitors, dose response, biochemical, TR-FRET (AID 855); assay type: functional;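 further: potency for disrupting eIF4E binding to eIF4GI seen as loss of FRET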
Chain of Eukaryotic translation initiation factor 4E (P63073 whole entry): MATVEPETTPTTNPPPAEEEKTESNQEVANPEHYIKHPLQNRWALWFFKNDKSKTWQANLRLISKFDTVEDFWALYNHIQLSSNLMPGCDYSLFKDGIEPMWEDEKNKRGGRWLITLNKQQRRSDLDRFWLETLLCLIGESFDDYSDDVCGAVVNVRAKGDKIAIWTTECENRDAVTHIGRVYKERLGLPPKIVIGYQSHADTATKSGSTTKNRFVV

[7] = biological target: T1, Voltage-gated N-type calcium channel alpha-1B subunit/Amyloid beta A4 precursor protein-binding family A member 1; assay type: protein assay; remark: listed apart in the source
X-box-binding protein 1 = biological target: T5, X-box-binding protein 1 (Homo sapiens, UniProt P17861); assay type: functional, Cricetulus griseus;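 further: confirmatory dose-response counter-screen serving a CHOP assay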
T5 sequence (P17861 whole entry): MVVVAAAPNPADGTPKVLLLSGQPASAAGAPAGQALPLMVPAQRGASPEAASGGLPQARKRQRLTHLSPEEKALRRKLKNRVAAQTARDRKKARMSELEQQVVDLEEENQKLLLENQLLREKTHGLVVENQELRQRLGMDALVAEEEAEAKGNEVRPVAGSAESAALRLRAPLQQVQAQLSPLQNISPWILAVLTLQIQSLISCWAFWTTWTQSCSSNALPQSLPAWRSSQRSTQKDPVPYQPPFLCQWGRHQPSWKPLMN

[8] = HeLa cell cytotoxicity, dose response, cytotoxicity control for MgcRacGAP inhibitor project (AID 624300); assay type: functional
A-375 [9] = experiment: MITF: Counter assay: A375 proliferation Measured in Cell-Based System Using Plate Reader - 2084-03_Inhibitor_Dose_DryPowder_Activity. [Related pubchem assays (depositor defined):AID488944]; assay type: functional; conditions: Homo sapiens
[10] = biological target: T6, Microphthalmia-associated transcription factor (Homo sapiens, UniProt O75030); experiment: TRPM1 promoter luciferase signal decrease, dose response, MITF inhibitor project, cell-based, SK-MEL-5, cherry-picked, set 3 (AID 493073); assay type: functional
T6 sequence (O75030 whole entry): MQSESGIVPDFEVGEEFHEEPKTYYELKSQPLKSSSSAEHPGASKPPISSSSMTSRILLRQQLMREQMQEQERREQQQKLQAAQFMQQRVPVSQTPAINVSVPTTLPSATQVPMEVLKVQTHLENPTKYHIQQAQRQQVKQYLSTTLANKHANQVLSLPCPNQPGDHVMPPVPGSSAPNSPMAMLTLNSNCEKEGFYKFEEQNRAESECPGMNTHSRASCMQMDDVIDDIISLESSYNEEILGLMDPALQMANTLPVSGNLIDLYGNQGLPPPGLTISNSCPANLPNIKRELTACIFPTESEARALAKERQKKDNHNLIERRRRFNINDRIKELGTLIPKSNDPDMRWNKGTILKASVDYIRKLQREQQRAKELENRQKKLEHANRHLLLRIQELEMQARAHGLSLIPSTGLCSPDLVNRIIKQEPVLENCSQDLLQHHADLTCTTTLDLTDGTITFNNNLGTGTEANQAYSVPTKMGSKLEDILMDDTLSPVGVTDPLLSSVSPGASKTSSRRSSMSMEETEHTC

A-375 [11] = experiment: A375 melanoma cell viability reduction, dose response, counter-screen for MITF modulator project, cherry-pick samples, set 2 (AID 540335); assay type: functional, cell-based; conditions: Homo sapiens

Structure (SMILES): CC(C)C(c1nnnn1C1CCCC1)N1CCC(C(N)=O)CC1 (centres undefined)
AC50 (Escherichia coli): 164 µM (active)

AC50 [1]: 24.4 µM (active)
IC50 [2]: 4.16 µM (active)
IC50 (Phosphomannomutase 2): > 100 µM (inactive)
IC50 [3]: 7.28 µM (active)
IC50 [4]: 37.5 µM (active)
IC50 [5]: > 50 µM (not active)
IC50 [6]: 50 µM (inactive)
IC50 [7]: 11.6 µM (active)
Absolute IC50 (XBP1) (X-box-binding protein 1): < 10 µM
Structure (SMILES): Clc1nss/c1=N\c1ccc(Br)cc1
CC50 [8]: 100 µM (active)

Structure (SMILES): O=C(Cn1ncc(Cl)c(Cl)c1=O)NC1CCCCC1
AC50 (A-375 [9]): > 35 µM (active)
AC50 [10]: 6.82 µM (active)
AC50 (A-375 [11]): > 35 µM (active)
